Source: ChEMBL document CHEMBL5137078, “Lysine-Tethered Stable Bicyclic Cationic Antimicrobial Peptide Combats Bacterial Infection in Vivo” (J Med Chem, 2022)
In brackets after ≈: the same amount, converted by molar mass.

How the values were obtained:
Type in all cases: functional
[1] = tested on: Staphylococcus aureus; test: Antibacterial activity against Staphylococcus aureus BNCC 186335 measured after 16 hrs by microdilution assay
[2] = tested on: Staphylococcus aureus; test: Antibacterial activity against methicillin-resistant Staphylococcus aureus BNCC 186335 measured after 16 hrs by microdilution assay
[3] = tested on: Listeria monocytogenes; test: Antibacterial activity against Listeria monocytogenes measured after 16 hrs by microdilution assay
[4] = tested on: Escherichia coli; test: Antibacterial activity against Escherichia coli BNCC 133264 measured after 16 hrs by microdilution assay
[5] = tested on: Pseudomonas aeruginosa; test: Antibacterial activity against Pseudomonas aeruginosa BNCC 125486 measured after 16 hrs by microdilution assay
[6] = tested on: Escherichia coli; test: Antibacterial activity against multidrug-resistant Escherichia coli BNCC 133264 measured after 16 hrs by microdilution assay
[7] = tested on: Pseudomonas aeruginosa; test: Antibacterial activity against multidrug-resistant Pseudomonas aeruginosa BNCC 125486 measured after 16 hrs by microdilution assay
[8] = tested on: Acinetobacter baumannii; test: Antibacterial activity against multidrug-resistant Acinetobacter baumannii measured after 16 hrs by microdilution assay

Structure (SMILES): CN[C@H](CC(C)C)C(=O)N[C@H]1C(=O)N[C@@H](CC(N)=O)C(=O)N[C@H]2C(=O)N[C@H]3C(=O)N[C@H](C(=O)N[C@H](C(=O)O)c4cc(O)cc(O)c4-c4cc3ccc4O)[C@H](O)c3ccc(c(Cl)c3)Oc3cc2cc(c3O[C@@H]2O[C@H](CO)[C@@H](O)[C@H](O)[C@H]2O[C@H]2C[C@](C)(N)[C@H](O)[C@H](C)O2)Oc2ccc(cc2Cl)[C@H]1O [VANCOMYCIN]
- MIC99.9 [1]: 2 µg/mL (≈ 1.38 µM)
- MIC99.9 [2]: 2 µg/mL (≈ 1.38 µM)
- MIC99.9 [3]: 1 µg/mL (≈ 0.69 µM)
- MIC99.9 [4]: >128 µg/mL
- MIC99.9 [5]: >128 µg/mL
- MIC99.9 [6]: >128 µg/mL
- MIC99.9 [7]: >128 µg/mL
- MIC99.9 [8]: >128 µg/mL

Structure (SMILES): CCN1CCN(C(=O)N[C@@H](C(=O)N[C@@H]2C(=O)N3C(C(=O)O)=C(CSc4nnnn4C)CS[C@H]23)c2ccc(O)cc2)C(=O)C1=O [CEFOPERAZONE]
- MIC99.9 [1]: <1 µg/mL
- MIC99.9 [2]: >128 µg/mL
- MIC99.9 [3]: 16 µg/mL (≈ 24.8 µM)
- MIC99.9 [4]: <1 µg/mL
- MIC99.9 [5]: 2 µg/mL (≈ 3.1 µM)
- MIC99.9 [6]: >128 µg/mL
- MIC99.9 [7]: 128 µg/mL (≈ 198 µM)
- MIC99.9 [8]: >128 µg/mL
